Where two headings read alike, the source gives them in different places. Peptide text beside a SMILES is read from it.
Columns and labels:
rat V1aR = rat V1aR (Rattus norvegicus, UniProt P30560); assay: cell-based; format: cell-based
A1 = A1 (Homo sapiens, UniProt P30542); assay: radioligand binding assay
BZD = assay: radioligand binding assay; set-up: species or system human
D2S = D2S (Homo sapiens, UniProt P14416); format: binding
M4 = M4 (Homo sapiens, UniProt P08173); format: binding
PCP = assay: radioligand binding assay; set-up: species or system human
FP = FP (Homo sapiens, UniProt P43088); format: binding
Sequence of FP (P43088 whole entry): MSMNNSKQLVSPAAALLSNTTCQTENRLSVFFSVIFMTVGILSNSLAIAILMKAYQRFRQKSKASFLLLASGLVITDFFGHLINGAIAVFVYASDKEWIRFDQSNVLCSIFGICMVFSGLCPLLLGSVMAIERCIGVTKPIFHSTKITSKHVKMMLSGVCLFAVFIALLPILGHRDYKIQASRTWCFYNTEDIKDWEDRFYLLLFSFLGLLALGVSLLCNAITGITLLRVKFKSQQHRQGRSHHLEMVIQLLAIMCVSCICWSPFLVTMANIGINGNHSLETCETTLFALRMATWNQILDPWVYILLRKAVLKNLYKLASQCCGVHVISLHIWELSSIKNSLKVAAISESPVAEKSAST

5-HT2B = 5-HT2B (Homo sapiens, UniProt P41595); assay: radioligand binding assay
PDE5 = PDE5 (Homo sapiens, UniProt O76074); format: biochemical
MAO-A = MAO-A (Homo sapiens, UniProt P21397); format: biochemical
rat OXTR = rat OXTR (Rattus norvegicus, UniProt P70536)
human OXTR = human OXTR (Homo sapiens, UniProt P30559)
[1] = in vivo, sc
[2] = rat
brain OXTR = details: in vivo
[3] = test system: PFC layer 5 pyramidal neurons; details: rat, in vivo
CPA rats = details: rat, in vivo; for social interaction time (Fig. 5O): sc
mPFC transcriptome = details: rat, in vivo, 0.07 mg/kg
beta 1 = beta 1 (Homo sapiens, UniProt P08588)
Sequence of beta 1 (P08588 whole entry): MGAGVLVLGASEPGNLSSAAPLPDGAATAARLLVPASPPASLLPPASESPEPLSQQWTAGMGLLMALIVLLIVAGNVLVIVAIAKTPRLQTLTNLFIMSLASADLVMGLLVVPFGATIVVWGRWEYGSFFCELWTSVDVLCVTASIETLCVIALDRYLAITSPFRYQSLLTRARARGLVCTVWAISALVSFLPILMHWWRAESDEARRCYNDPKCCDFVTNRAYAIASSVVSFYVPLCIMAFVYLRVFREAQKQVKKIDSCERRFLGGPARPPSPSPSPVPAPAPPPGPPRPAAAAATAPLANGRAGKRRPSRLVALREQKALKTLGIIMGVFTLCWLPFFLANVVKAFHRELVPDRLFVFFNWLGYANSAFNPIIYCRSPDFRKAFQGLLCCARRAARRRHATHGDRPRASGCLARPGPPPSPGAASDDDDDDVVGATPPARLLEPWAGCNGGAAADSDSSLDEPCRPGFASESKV

D1 = D1 (Homo sapiens, UniProt P21728)
Sequence of D1 (P21728 whole entry): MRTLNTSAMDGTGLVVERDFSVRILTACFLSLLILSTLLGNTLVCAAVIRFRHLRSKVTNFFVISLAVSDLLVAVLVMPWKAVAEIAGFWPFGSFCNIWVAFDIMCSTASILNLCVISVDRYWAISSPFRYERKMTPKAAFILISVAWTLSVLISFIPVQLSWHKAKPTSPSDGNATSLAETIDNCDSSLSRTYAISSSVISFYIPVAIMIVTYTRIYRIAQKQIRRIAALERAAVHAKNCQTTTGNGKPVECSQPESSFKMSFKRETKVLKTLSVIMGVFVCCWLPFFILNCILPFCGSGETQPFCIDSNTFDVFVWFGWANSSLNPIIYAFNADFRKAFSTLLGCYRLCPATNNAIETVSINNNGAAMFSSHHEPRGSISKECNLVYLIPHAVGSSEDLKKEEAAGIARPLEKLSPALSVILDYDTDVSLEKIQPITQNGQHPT

H1 = H1 (Homo sapiens, UniProt P35367)
H2 = H2 (Homo sapiens, UniProt P25021)
H3 = H3 (Homo sapiens, UniProt Q9Y5N1)
M2 = M2 (Homo sapiens, UniProt P08172)
Sequence of M2 (P08172 whole entry): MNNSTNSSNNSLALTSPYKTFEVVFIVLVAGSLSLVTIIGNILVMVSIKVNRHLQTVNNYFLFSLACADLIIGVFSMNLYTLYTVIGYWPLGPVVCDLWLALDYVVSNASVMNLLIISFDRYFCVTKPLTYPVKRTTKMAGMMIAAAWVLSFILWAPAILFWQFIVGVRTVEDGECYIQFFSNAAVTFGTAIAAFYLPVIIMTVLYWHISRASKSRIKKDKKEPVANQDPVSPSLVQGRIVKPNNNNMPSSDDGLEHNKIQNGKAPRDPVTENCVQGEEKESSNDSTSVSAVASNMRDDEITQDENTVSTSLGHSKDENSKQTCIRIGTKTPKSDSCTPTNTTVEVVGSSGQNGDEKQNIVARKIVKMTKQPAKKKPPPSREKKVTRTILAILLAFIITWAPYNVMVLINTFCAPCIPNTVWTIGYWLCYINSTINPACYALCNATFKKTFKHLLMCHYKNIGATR

PPARgamma = PPARgamma (Homo sapiens, UniProt P37231)
Sequence of PPARgamma (P37231 whole entry): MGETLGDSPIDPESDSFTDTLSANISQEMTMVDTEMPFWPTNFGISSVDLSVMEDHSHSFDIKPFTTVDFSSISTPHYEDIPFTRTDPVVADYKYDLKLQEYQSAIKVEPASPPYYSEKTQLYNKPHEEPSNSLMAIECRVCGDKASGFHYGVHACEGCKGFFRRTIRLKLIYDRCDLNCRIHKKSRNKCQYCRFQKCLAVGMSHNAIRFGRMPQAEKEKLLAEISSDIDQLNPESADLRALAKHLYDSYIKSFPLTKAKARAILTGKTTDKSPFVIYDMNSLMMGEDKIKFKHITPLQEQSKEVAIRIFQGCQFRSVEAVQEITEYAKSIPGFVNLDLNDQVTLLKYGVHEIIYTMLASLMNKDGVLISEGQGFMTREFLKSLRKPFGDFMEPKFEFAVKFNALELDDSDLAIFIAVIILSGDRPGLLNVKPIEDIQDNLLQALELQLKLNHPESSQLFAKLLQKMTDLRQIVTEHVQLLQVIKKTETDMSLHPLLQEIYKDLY

5-HT1A = 5-HT1A (Homo sapiens, UniProt P08908)
5-HT3 = 5-HT3 (Homo sapiens, UniProt P46098)
Sequence of 5-HT3 (P46098 24-478): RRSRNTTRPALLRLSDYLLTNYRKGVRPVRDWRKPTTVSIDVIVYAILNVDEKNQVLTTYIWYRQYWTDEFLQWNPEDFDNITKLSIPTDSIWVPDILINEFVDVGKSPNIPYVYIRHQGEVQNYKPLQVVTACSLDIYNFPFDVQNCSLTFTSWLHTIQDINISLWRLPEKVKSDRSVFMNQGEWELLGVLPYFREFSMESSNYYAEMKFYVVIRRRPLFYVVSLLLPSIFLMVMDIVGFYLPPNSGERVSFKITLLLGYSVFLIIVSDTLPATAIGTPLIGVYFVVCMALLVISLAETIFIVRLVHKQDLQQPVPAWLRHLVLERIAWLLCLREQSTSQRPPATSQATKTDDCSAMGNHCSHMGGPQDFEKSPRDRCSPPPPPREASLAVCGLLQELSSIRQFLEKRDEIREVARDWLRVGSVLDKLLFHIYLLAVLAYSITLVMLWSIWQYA

GR = GR (Homo sapiens, UniProt P04150)
Sequence of GR (P04150 whole entry): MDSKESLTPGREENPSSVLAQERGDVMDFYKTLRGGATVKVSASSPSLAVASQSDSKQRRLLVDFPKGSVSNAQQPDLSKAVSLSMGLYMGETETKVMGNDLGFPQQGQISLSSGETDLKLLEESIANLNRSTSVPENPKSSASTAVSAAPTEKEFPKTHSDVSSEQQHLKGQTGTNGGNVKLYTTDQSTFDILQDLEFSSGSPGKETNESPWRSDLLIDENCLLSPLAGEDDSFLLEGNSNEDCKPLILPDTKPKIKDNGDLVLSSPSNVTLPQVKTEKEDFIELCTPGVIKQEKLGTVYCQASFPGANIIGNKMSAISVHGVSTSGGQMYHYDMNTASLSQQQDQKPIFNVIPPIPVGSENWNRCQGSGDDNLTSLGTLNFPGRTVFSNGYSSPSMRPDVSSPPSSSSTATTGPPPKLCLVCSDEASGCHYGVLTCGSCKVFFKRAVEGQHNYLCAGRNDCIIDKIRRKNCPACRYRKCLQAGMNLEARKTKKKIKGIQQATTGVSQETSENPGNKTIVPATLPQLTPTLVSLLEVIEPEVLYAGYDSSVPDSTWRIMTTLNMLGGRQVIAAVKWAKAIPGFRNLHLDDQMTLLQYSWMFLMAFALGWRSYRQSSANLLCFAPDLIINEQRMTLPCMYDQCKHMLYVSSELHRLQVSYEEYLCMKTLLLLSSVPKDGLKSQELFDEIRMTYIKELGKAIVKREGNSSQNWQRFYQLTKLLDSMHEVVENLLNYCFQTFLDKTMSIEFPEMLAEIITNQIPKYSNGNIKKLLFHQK

ERalpha = ERalpha (Homo sapiens, UniProt P03372)
COX2 = COX2 (Homo sapiens, UniProt P35354)
HIV-1 protease = HIV-1 protease (Human immunodeficiency virus type 1 group M subtype B, UniProt P04585)
GSK3alpha = GSK3alpha (Homo sapiens, UniProt P49840)
MAO-B enzyme = MAO-B enzyme (Homo sapiens, UniProt P27338)
Sequence of MAO-B enzyme (P27338 whole entry): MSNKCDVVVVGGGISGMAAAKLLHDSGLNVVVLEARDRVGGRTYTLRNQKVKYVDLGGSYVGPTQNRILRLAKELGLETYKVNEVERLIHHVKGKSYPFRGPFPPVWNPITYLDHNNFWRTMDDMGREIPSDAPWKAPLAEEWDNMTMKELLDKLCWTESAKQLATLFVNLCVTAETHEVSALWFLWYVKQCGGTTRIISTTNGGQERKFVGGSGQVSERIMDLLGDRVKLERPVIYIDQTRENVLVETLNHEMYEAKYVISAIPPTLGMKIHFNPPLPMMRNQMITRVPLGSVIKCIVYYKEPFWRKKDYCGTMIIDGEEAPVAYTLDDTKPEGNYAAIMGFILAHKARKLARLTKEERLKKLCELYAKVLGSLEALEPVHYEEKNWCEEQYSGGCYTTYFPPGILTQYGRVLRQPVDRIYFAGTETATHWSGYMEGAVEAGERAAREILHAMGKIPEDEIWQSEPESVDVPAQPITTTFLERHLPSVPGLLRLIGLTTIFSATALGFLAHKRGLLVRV

human V1aR = human V1aR (Homo sapiens, UniProt P37288); assay: cell-based

Sequence of rat V1aR (P30560 whole entry): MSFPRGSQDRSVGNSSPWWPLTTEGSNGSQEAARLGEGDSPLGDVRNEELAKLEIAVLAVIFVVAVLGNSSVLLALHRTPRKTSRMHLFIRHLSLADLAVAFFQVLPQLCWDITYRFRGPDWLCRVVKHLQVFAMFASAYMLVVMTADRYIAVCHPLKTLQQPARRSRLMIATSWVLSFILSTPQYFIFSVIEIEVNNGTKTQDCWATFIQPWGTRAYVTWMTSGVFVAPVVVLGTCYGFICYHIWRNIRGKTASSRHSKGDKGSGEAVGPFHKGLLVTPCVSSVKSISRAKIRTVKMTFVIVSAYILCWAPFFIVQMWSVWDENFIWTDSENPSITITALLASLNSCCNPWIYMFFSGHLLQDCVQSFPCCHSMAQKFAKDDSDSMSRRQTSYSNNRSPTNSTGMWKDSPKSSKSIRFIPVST
Sequence of D2S (P14416 other isoform, or with tags, fused parts or gaps): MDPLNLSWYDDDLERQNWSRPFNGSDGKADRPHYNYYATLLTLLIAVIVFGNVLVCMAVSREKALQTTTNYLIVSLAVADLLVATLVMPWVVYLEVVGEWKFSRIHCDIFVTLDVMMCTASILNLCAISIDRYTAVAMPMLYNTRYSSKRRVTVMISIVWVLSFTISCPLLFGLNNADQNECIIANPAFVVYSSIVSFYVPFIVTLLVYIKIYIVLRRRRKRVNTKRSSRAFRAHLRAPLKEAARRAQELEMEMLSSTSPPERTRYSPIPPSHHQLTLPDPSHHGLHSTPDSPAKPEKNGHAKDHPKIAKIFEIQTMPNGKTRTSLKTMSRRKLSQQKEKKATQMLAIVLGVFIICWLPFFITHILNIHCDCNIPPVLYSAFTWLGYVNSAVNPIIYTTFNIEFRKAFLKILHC

## CC[C@H](C)[C@@H]1NC(=O)[C@H](Cc2ccc(O)cc2)NC(=O)CNC(=O)CC[C@@H](C(=O)N2CC(F)C[C@H]2C(=O)N[C@@H](CC(C)C)C(=O)NCC(N)=O)NC(=O)[C@H](CC(N)=O)NC(=O)[C@H](CCC(N)=O)NC1=O (stereo partly shown) [RO6958375] (HELM PEPTIDE1{G.Y.I.Q.N.E.[O=C([C@@H]1CC(F)CN1[*:1])[*:2]].L.G.[am]}$PEPTIDE1,PEPTIDE1,1:R1-6:R3$$$V2.0)
Rat V1aR
  EC50: > 27 µM
  activity on rat V1aR (inactive up to): > 1 µM
A1
  % Inhibition of Control Specific Binding: -4%
  Mean / % of Control Specific Binding: 104.1%
BZD
  % Inhibition of Control Specific Binding: -16%
  Mean / % of Control Specific Binding: 116%
D2S
  % Inhibition of Control Specific Binding: 6%
  Mean / % of Control Specific Binding: 93.7%
M4
  % Inhibition of Control Specific Binding: -17%
  Mean / % of Control Specific Binding: 116.9%
PCP
  % Inhibition of Control Specific Binding: -6%
  Mean / % of Control Specific Binding: 105.5%
FP
  % Inhibition of Control Specific Binding: 3%
  Mean / % of Control Specific Binding: 96.9%
5-HT2B
  % Inhibition of Control Specific Binding: -2%
  Mean / % of Control Specific Binding: 102%
PDE5
  % Inhibition of Control Specific Binding: -21%
  Mean / % of Control Specific Binding: 121.4%
MAO-A
  % Inhibition of Control Specific Binding: -15%
  Mean / % of Control Specific Binding: 115%
Rat OXTR
  agonist efficacy and potency relative to oxytocin on rat OXTR: full OXTR agonist and equipotent to oxytocin
Human OXTR
  activation of human OXTR: fully activated
[1]; 0.03 mg/kg
  highest concentration detected in rat CSF: 0.24 nM
[1]; 0.1 mg/kg
  highest concentration detected in rat CSF: 0.58 nM
[1]; rat
  CNS uptake from plasma: ca. 1%
  brain half-life (CSF kinetic): ca. 70 min
  half-life in plasma: 10 to 15 min
  subcutaneous absorption: rapid
[2]
  plasma protein binding: negligible
Brain OXTR; sc
  time of full activation of rat OXTR post-dose: 4.3 h
Brain OXTR; rat
  CSF concentration relative to in vitro OXTR EC50: more than 10 fold
  brain OXTR activation: 0%
Brain OXTR; rat, sc, 0.001 mg/kg
  brain OXTR activation: 10%
Brain OXTR; rat, sc, 0.07 mg/kg
  brain OXTR activation: 72%
[3]
  current-membrane voltage relationship and input resistance after CPA: normalized
  differences in passive membrane properties between control and CPA rats: not observed
  effect on number of evoked action potentials after CPA: only partially recovered
  effect on rheobase after CPA: fully restored
[3]; 0.07 mg/kg
  AUC of current-voltage (IV) curve (Fig. 5L): 36.9 ± 4.56
[3]; sc, 0.07 mg/kg
  AUC of number of action potentials per current step (Fig. 5J): 9.79 ± 2.74
  input resistance (Rin) at 80 pA (Fig. 5M): 180.7 MΩ
  membrane capacitance, Cm (Fig. 5E): 65.11 pF
  membrane resistance, Rm (Fig. 5D): 77.59 MΩ
  resting membrane potential, Vrest (Fig. 5C): -66.87 mV
  rheobase (Fig. 5K): 209
CPA rats
  social deficits observed in CPA rats: not evident
CPA rats; 0.001 mg/kg
  social interaction time (Fig. 5O): 198.6 s
CPA rats; 0.07 mg/kg
  social interaction time (Fig. 5O): 190.2 s
mPFC transcriptome
  CPA-induced transcriptomic changes: partially prevented
Beta 1
  % Inhibition of Control Specific Binding: -5%
  Mean / % of Control Specific Binding: 105.2%
D1
  % Inhibition of Control Specific Binding: -2%
  Mean / % of Control Specific Binding: 102.2%
glycine
  % Inhibition of Control Specific Binding: 15%
  Mean / % of Control Specific Binding: 84.6%
H1
  % Inhibition of Control Specific Binding: -1%
  Mean / % of Control Specific Binding: 100.9%
H2
  % Inhibition of Control Specific Binding: 18%
  Mean / % of Control Specific Binding: 81.9%
H3
  % Inhibition of Control Specific Binding: -6%
  Mean / % of Control Specific Binding: 105.9%
M2
  % Inhibition of Control Specific Binding: -14%
  Mean / % of Control Specific Binding: 113.8%
PPARgamma
  % Inhibition of Control Specific Binding: -3%
  Mean / % of Control Specific Binding: 103.1%
5-HT1A
  % Inhibition of Control Specific Binding: 16%
  Mean / % of Control Specific Binding: 84.4%
5-HT3
  % Inhibition of Control Specific Binding: 20%
  Mean / % of Control Specific Binding: 80%
GR
  % Inhibition of Control Specific Binding: -9%
  Mean / % of Control Specific Binding: 109.1%
ERalpha
  % Inhibition of Control Specific Binding: -2%
  Mean / % of Control Specific Binding: 101.7%
COX2
  % Inhibition of Control Specific Binding: 15%
  Mean / % of Control Specific Binding: 85.3%
HIV-1 protease
  % Inhibition of Control Specific Binding: 5%
  Mean / % of Control Specific Binding: 95.3%
GSK3alpha
  % Inhibition of Control Specific Binding: -5%
  Mean / % of Control Specific Binding: 105.2%
MAO-B enzyme
  % Inhibition of Control Specific Binding: -14%
  Mean / % of Control Specific Binding: 113.8%
Human V1aR
  EC50: > 27 µM
